# Experiments:
# EGFR = biological target: T1, EGFR (Homo sapiens, UniProt P00533); experiment: EGFR Kinase Assay; format: biochemical; details: for IC50: GST-EGFR, ATP 5 μM; for inhibition at 2 µM: test concentration of 2 μM, compounds without an IC50, read-out: EGFR inhibition in percent
# T1 construct: The intracellular portion of EGFR started at nucleotide 2189 (corresponding to amino acid 667) and ended at the termination codon; made in house; host or cells: Sf9 insect cells (baculovirus)
# Method in brief: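 GST-fused human EGFR intracellular domain (from aa 667), Sf9-expressed, phosphorylated biotinylated polyGluTyr with 5 μM ATP plus γ-33P ATP in Tris pH 8.0, MgCl2, vanadate, 1 mM DTT, 1 h at 30 °C. Streptavidin Flashplate scintillation read; triplicate 16-point half-log series from 200 uM; IC50 from % inhibition vs log concentration, else % inhibition at 2 μM.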
# HER-2 = biological target: T2, HER-2 (Homo sapiens, UniProt P04626); experiment: HER-2 Kinase Assay; format: biochemical; details: value in parentheses
# T2 construct: His6 with thrombin site (N); purchased Proqinase (Freiburg, Germany)
# T2 sequence (P04626 679-1255): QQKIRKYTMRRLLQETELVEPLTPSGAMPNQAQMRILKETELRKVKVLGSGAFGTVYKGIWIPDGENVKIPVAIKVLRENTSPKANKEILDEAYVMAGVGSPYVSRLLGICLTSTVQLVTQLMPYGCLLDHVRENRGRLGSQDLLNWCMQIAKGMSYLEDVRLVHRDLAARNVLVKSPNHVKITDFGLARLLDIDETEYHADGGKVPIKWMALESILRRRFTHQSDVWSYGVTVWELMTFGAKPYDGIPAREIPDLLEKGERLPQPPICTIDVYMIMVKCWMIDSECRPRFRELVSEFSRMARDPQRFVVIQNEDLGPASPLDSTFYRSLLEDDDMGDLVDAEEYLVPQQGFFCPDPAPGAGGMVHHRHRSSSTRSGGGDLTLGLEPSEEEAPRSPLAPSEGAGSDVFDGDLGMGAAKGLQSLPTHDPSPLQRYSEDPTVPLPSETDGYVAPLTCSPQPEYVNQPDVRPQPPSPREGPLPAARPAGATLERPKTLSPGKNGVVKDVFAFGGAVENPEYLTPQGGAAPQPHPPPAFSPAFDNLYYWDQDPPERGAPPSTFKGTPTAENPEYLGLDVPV
# Method in brief: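 GST/HIS6-tagged HER-2 aa 679–1255 kinase with biotinylated polyGluTyr (1.5 ng/μL), 1 μM ATP plus γ-33P-ATP, Mg2+/Mn2+, DTT, Hepes pH 7.5; 1 h at 30 °C. Substrate phosphorylation captured on streptavidin scintillation plates after EDTA/PBS washes; values are % inhibition at 1 μM or IC50.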
# T1 sequence (P00533 669-1210 limits assumed): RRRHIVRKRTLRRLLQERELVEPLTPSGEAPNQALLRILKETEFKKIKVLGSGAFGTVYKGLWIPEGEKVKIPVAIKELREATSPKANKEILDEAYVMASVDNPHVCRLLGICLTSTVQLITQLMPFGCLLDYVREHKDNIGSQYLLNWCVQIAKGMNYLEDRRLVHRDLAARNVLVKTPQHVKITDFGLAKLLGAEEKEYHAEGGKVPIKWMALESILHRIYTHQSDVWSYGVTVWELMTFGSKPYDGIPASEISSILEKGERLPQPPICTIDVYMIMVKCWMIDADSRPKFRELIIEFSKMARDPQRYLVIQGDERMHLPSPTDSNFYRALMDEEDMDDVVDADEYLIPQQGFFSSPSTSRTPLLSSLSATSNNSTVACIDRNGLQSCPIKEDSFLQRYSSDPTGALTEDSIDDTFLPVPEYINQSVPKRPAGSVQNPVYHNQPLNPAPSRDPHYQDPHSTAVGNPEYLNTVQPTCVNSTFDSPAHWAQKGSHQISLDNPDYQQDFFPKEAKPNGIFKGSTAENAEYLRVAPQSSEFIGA
smiles,measurement,setting,value
"O=C(Nc1cccc(CN2CCOCC2)c1)c1sc2ncnc3c2c1NC(=O)N3c1ccc(Oc2ccccc2)cc1 [Cpd 220, 4-oxo-5-(4-phenoxy-phenyl)-4,5-dihydro-3H-1-thia-3,5,6,8-tetraaza-acenaphthylene-2-carboxylic acid (3-morpholin-4-ylmethyl-phenyl)-amide]",IC50,EGFR,141 nM
same,IC50,HER-2,355 nM
"O=C(Nc1ccc(CN2CCOCC2)c(Cl)c1)c1sc2ncnc3c2c1NC(=O)N3c1ccc(Oc2ccccc2)cc1 [Cpd 221, 4-oxo-5-(4-phenoxy-phenyl)-4,5-dihydro-3H-1-thia-3,5,6,8-tetraaza-acenaphthylene-2-carboxylic acid (3-chloro-4-morpholin-4-ylmethyl-phenyl)-amide]",IC50,EGFR,85 nM
same,IC50,HER-2,111 nM
"CCOC(=O)c1sc2ncnc3c2c1NC(=O)N3c1ccc(OCc2ccco2)c(Cl)c1 [Cpd 222, 5-[3-chloro-4-(furan-2-ylmethoxy)-phenyl]-4-oxo-4,5-dihydro-3H-1-thia-3,5,6,8-tetraaza-acenaphthylene-2-carboxylic acid ethyl ester]",inhibition at 2 µM,EGFR,4%
same,IC50,HER-2,> 100000 nM
"CCOC(=O)c1sc2ncnc3c2c1NC(=O)N3c1ccc(OCc2cccs2)c(Cl)c1 [Cpd 223, 5-[3-chloro-4-(thiophen-2-ylmethoxy)-phenyl]-4-oxo-4,5-dihydro-3H-1-thia-3,5,6,8-tetraaza-acenaphthylene-2-carboxylic acid ethyl ester]",inhibition at 2 µM,EGFR,5%
same,IC50,HER-2,> 100000 nM
"COc1cc(NC(=O)c2sc3ncnc4c3c2NC(=O)N4c2ccc(Sc3ccccc3)cc2)ccc1CN1CCCCC1 [Cpd 224, 4-oxo-5-(4-phenylsulfanyl-phenyl)-4,5-dihydro-3H-1-thia-3,5,6,8-tetraaza-acenaphthylene-2-carboxylic acid (3-methoxy-4-piperidin-1-ylmethyl-phenyl)-amide]",IC50,EGFR,14 nM
same,IC50,HER-2,27 nM
"O=C(Nc1ccc(CN2CCOCC2)cc1)c1sc2ncnc3c2c1NC(=O)N3c1ccc(OCc2cccs2)c(Cl)c1 [Cpd 226, 5-[3-chloro-4-(thiophen-2-ylmethoxy)-phenyl]-4-oxo-4,5-dihydro-3H-1-thia-3,5,6,8-tetraaza-acenaphthylene-2-carboxylic acid (4-morpholin-4-ylmethyl-phenyl)-amide]",IC50,EGFR,33 nM
same,IC50,HER-2,27 nM
"O=C(Nc1ccc(CN2CCCCC2)cc1)c1sc2ncnc3c2c1NC(=O)N3c1ccc(OCc2cccs2)c(Cl)c1 [Cpd 227, 5-[3-chloro-4-(thiophen-2-ylmethoxy)-phenyl]-4-oxo-4,5-dihydro-3H-1-thia-3,5,6,8-tetraaza-acenaphthylene-2-carboxylic acid (4-piperidin-1-ylmethyl-phenyl)-amide]",IC50,EGFR,19 nM
same,IC50,HER-2,33 nM
"COc1cc(NC(=O)c2sc3ncnc4c3c2NC(=O)N4c2ccc(OCc3cccs3)c(Cl)c2)ccc1CN1CCCCC1 [Cpd 228, 5-[3-chloro-4-(thiophen-2-ylmethoxy)-phenyl]-4-oxo-4,5-dihydro-3H-1-thia-3,5,6,8-tetraaza-acenaphthylene-2-carboxylic acid (3-methoxy-4-piperidin-1-ylmethyl-phenyl)-amide]",IC50,EGFR,17 nM
same,IC50,HER-2,33 nM
"COc1cc(NC(=O)c2sc3ncnc4c3c2NC(=O)N4c2ccc(OCc3cccs3)c(Cl)c2)ccc1CN1CCOCC1 [Cpd 229, 5-[3-chloro-4-(thiophen-2-ylmethoxy)-phenyl]-4-oxo-4,5-dihydro-3H-1-thia-3,5,6,8-tetraaza-acenaphthylene-2-carboxylic acid (3-methoxy-4-morpholin-4-ylmethyl-phenyl)-amide]",IC50,EGFR,33 nM
same,IC50,HER-2,17 nM
"CN1CCC(NC(=O)c2sc3ncnc4c3c2NC(=O)N4c2ccc(OCc3cccs3)c(Cl)c2)CC1 [Cpd 230, 5-[3-chloro-4-(thiophen-2-ylmethoxy)-phenyl]-4-oxo-4,5-dihydro-3H-1-thia-3,5,6,8-tetraaza-acenaphthylene-2-carboxylic acid (1-methyl-piperidin-4-yl)-amide]",IC50,EGFR,109 nM
same,IC50,HER-2,367 nM
"O=C(Nc1ccc(CN2CCOCC2)c(C(F)(F)F)c1)c1sc2ncnc3c2c1NC(=O)N3c1ccc(Oc2ccccc2)cc1 [Cpd 231, 4-oxo-5-(4-phenoxy-phenyl)-4,5-dihydro-3H-1-thia-3,5,6,8-tetraaza-acenaphthylene-2-carboxylic acid (4-morpholin-4-ylmethyl-3-trifluoromethyl-phenyl)-amide]",IC50,EGFR,314 nM
same,IC50,HER-2,1050 nM
"COc1cc(NC(=O)c2sc3ncnc4c3c2NC(=O)N4c2ccc(Oc3cccnc3)cc2)ccc1CN1CCOCC1 [Cpd 236, 4-oxo-5-[4-(pyridin-3-yloxy)-phenyl]-4,5-dihydro-3H-1-thia-3,5,6,8-tetraaza-acenaphthylene-2-carboxylic acid (3-methoxy-4-morpholin-4-ylmethyl-phenyl)-amide]",IC50,EGFR,108 nM
same,IC50,HER-2,454 nM
"O=C(Nc1ccc(CN2CCOCC2)cc1)c1sc2ncnc3c2c1NC(=O)N3c1ccc(Oc2cccnc2)cc1 [Cpd 237, 4-oxo-5-[4-(pyridin-3-yloxy)-phenyl]-4,5-dihydro-3H-1-thia-3,5,6,8-tetraaza-acenaphthylene-2-carboxylic acid (4-morpholin-4-ylmethyl-phenyl)-amide]",IC50,EGFR,90 nM
same,IC50,HER-2,454 nM
"O=C(Nc1ccc(CN2CCCCC2)cc1)c1sc2ncnc3c2c1NC(=O)N3c1ccc(Oc2cccnc2)cc1 [Cpd 238, 4-oxo-5-[4-(pyridin-3-yloxy)-phenyl]-4,5-dihydro-3H-1-thia-3,5,6,8-tetraaza-acenaphthylene-2-carboxylic acid (4-piperidin-1-ylmethyl-phenyl)-amide]",IC50,EGFR,132 nM
same,IC50,HER-2,1050 nM
"O=C(Nc1ccc(CN2CCOCC2)c(OC(F)(F)F)c1)c1sc2ncnc3c2c1NC(=O)N3c1ccc(Oc2ccccc2)cc1 [Cpd 239, 4-oxo-5-(4-phenoxy-phenyl)-4,5-dihydro-3H-1-thia-3,5,6,8-tetraaza-acenaphthylene-2-carboxylic acid (4-morpholin-4-ylmethyl-3-trifluoromethoxy-phenyl)-amide]",IC50,EGFR,114 nM
same,IC50,HER-2,414 nM
"CCOC(=O)c1sc2ncnc3c2c1NC(=O)N3c1ccc(NC(=O)c2ccccc2)cc1 [Cpd 241, 5-(4-benzoylamino-phenyl)-4-oxo-4,5-dihydro-3H-1-thia-3,5,6,8-tetraaza-acenaphthylene-2-carboxylic acid ethyl ester]",inhibition at 2 µM,EGFR,-2%
same,IC50,HER-2,> 100000 nM
"COc1cc(NC(=O)c2sc3ncnc4c3c2NC(=O)N4c2ccc(Oc3ccccc3)cc2)ccc1CN1CCCCC1 [Cpd 242, 4-oxo-5-(4-phenoxy-phenyl)-4,5-dihydro-3H-1-thia-3,5,6,8-tetraaza-acenaphthylene-2-carboxylic acid (3-methoxy-4-piperidin-1-ylmethyl-phenyl)-amide]",IC50,EGFR,22 nM
same,IC50,HER-2,42 nM
"COc1cc(NC(=O)c2sc3ncnc4c3c2NC(=O)N4c2ccc(OCc3ccco3)c(Cl)c2)ccc1CN1CCCCC1 [Cpd 243, 5-[3-chloro-4-(furan-2-ylmethoxy)-phenyl]-4-oxo-4,5-dihydro-3H-1-thia-3,5,6,8-tetraaza-acenaphthylene-2-carboxylic acid (3-methoxy-4-piperidin-1-ylmethyl-phenyl)-amide]",IC50,EGFR,16 nM
same,IC50,HER-2,83 nM
"O=C(Nc1ccc(CN2CCCCC2)cc1)c1sc2ncnc3c2c1NC(=O)N3c1ccc(OCc2ccco2)c(Cl)c1 [Cpd 244, 5-[3-chloro-4-(furan-2-ylmethoxy)-phenyl]-4-oxo-4,5-dihydro-3H-1-thia-3,5,6,8-tetraaza-acenaphthylene-2-carboxylic acid (4-piperidin-1-ylmethyl-phenyl)-amide]",IC50,EGFR,23 nM
same,IC50,HER-2,85 nM
"COc1cc(NC(=O)c2sc3ncnc4c3c2NC(=O)N4c2ccc(OCc3ccco3)c(Cl)c2)ccc1CN1CCOCC1 [Cpd 246, 5-[3-chloro-4-(furan-2-ylmethoxy)-phenyl]-4-oxo-4,5-dihydro-3H-1-thia-3,5,6,8-tetraaza-acenaphthylene-2-carboxylic acid (3-methoxy-4-morpholin-4-ylmethyl-phenyl)-amide]",IC50,EGFR,22 nM
same,IC50,HER-2,47 nM
"CN1CCC(NC(=O)c2sc3ncnc4c3c2NC(=O)N4c2ccc(OCc3ccco3)c(Cl)c2)CC1 [Cpd 247, 5-[3-chloro-4-(furan-2-ylmethoxy)-phenyl]-4-oxo-4,5-dihydro-3H-1-thia-3,5,6,8-tetraaza-acenaphthylene-2-carboxylic acid (1-methyl-piperidin-4-yl)-amide]",IC50,EGFR,249 nM
same,IC50,HER-2,1190 nM
"O=C(Nc1ccc(N2C(=O)Nc3c(C(=O)Nc4ccc(CN5CCOCC5)cc4)sc4ncnc2c34)cc1)c1ccccc1 [Cpd 248, 5-(4-benzoylamino-phenyl)-4-oxo-4,5-dihydro-3H-1-thia-3,5,6,8-tetraaza-acenaphthylene-2-carboxylic acid (4-morpholin-4-ylmethyl-phenyl)-amide]",inhibition at 2 µM,EGFR,8%
same,IC50,HER-2,> 100000 nM
"O=C(Nc1ccc(N2C(=O)Nc3c(C(=O)Nc4ccc(CN5CCCCC5)cc4)sc4ncnc2c34)cc1)c1ccccc1 [Cpd 249, 5-(4-benzoylamino-phenyl)-4-oxo-4,5-dihydro-3H-1-thia-3,5,6,8-tetraaza-acenaphthylene-2-carboxylic acid (4-piperidin-1-ylmethyl-phenyl)-amide]",inhibition at 2 µM,EGFR,9%
same,IC50,HER-2,> 100000 nM

# From patent publication US7579356B2, “Thia-tetraazaacenaphthylene kinase inhibitors” (Janssen Pharmaceutica NV, priority 2005, dated 2009)
